Experimental data: the NIST ThermoML archive (doi:10.1021/je800579j)
± gives the expanded uncertainty stated by the source.

Assay: refractive index (Na D-line) (dimensionless); xn = mol fraction of the nth substance listed
Settings: Liquid, Standard Abbe refractometry

Cc1ccccc1C [1,2-dimethylbenzene] + C1COCCO1
refractive index
Settings	288.15 K	293.15 K	298.15 K	303.15 K	308.15 K	313.15 K	318.15 K
x2 = 0	1.5083 ± 0.0007	1.5055 ± 0.0007	1.5029 ± 0.0007	1.5002 ± 0.0007	1.4975 ± 0.0007	1.4948 ± 0.0007	1.4921 ± 0.0007
x2 = 0.0672	1.5029 ± 0.0007	1.5001 ± 0.0007	1.4974 ± 0.0007	1.4946 ± 0.0007	1.4918 ± 0.0007	1.489 ± 0.0007	1.4862 ± 0.0007
x2 = 0.1391	1.4972 ± 0.0007	1.4944 ± 0.0007	1.4917 ± 0.0007	1.4889 ± 0.0007	1.4861 ± 0.0007	1.4833 ± 0.0007	1.4804 ± 0.0007
x2 = 0.2103	1.4914 ± 0.0007	1.4886 ± 0.0007	1.4858 ± 0.0007	1.4831 ± 0.0007	1.4803 ± 0.0007	1.4775 ± 0.0007	1.4746 ± 0.0007
x2 = 0.2853	1.4853 ± 0.0007	1.4825 ± 0.0007	1.4798 ± 0.0007	1.4771 ± 0.0007	1.4743 ± 0.0007	1.4715 ± 0.0007	1.4687 ± 0.0007
x2 = 0.3543	1.4796 ± 0.0007	1.4769 ± 0.0007	1.4742 ± 0.0007	1.4714 ± 0.0007	1.4687 ± 0.0007	1.4659 ± 0.0007	1.4632 ± 0.0007
x2 = 0.4293	1.4734 ± 0.0007	1.4707 ± 0.0007	1.4681 ± 0.0007	1.4654 ± 0.0007	1.4627 ± 0.0007	1.46 ± 0.0007	1.4573 ± 0.0007
x2 = 0.5092	1.4667 ± 0.0007	1.4641 ± 0.0007	1.4615 ± 0.0007	1.4589 ± 0.0007	1.4562 ± 0.0007	1.4535 ± 0.0007	1.4509 ± 0.0007
x2 = 0.581	1.4606 ± 0.0007	1.458 ± 0.0007	1.4554 ± 0.0007	1.4528 ± 0.0007	1.4502 ± 0.0007	1.4476 ± 0.0007	1.445 ± 0.0007
x2 = 0.6518	1.4545 ± 0.0006	1.452 ± 0.0006	1.4495 ± 0.0007	1.4469 ± 0.0007	1.4444 ± 0.0007	1.4418 ± 0.0007	1.4392 ± 0.0007
x2 = 0.7248	1.4482 ± 0.0006	1.4457 ± 0.0006	1.4433 ± 0.0006	1.4408 ± 0.0006	1.4383 ± 0.0007	1.4357 ± 0.0007	1.4332 ± 0.0006
x2 = 0.7888	1.4427 ± 0.0006	1.4402 ± 0.0006	1.4378 ± 0.0006	1.4354 ± 0.0006	1.4329 ± 0.0006	1.4304 ± 0.0006	1.4279 ± 0.0006
x2 = 0.8595	1.4365 ± 0.0006	1.4342 ± 0.0006	1.4318 ± 0.0006	1.4295 ± 0.0006	1.4271 ± 0.0006	1.4246 ± 0.0006	1.4221 ± 0.0006
x2 = 0.9298	1.4305 ± 0.0006	1.4282 ± 0.0006	1.4259 ± 0.0006	1.4236 ± 0.0006	1.4213 ± 0.0006	1.419 ± 0.0006	1.4166 ± 0.0006

C1COCCO1 [1,4-dioxane] + c1ccccc1
refractive index
Settings	288.15 K	293.15 K	298.15 K	303.15 K	308.15 K	313.15 K	318.15 K
x1 = 0.0713	1.4982 ± 0.0007	1.4951 ± 0.0007	1.4921 ± 0.0007	1.489 ± 0.0007	1.4859 ± 0.0007	1.4829 ± 0.0007	1.4798 ± 0.0007
x1 = 0.1403	1.4924 ± 0.0007	1.4894 ± 0.0007	1.4864 ± 0.0007	1.4834 ± 0.0007	1.4803 ± 0.0007	1.4773 ± 0.0007	1.4743 ± 0.0007
x1 = 0.2123	1.4864 ± 0.0007	1.4835 ± 0.0007	1.4805 ± 0.0007	1.4775 ± 0.0007	1.4746 ± 0.0007	1.4716 ± 0.0007	1.4686 ± 0.0007
x1 = 0.2809	1.4807 ± 0.0007	1.4778 ± 0.0007	1.4749 ± 0.0007	1.472 ± 0.0007	1.4691 ± 0.0007	1.4662 ± 0.0007	1.4633 ± 0.0007
x1 = 0.3528	1.4748 ± 0.0007	1.472 ± 0.0007	1.4692 ± 0.0007	1.4663 ± 0.0007	1.4635 ± 0.0007	1.4607 ± 0.0007	1.4578 ± 0.0007
x1 = 0.4195	1.4694 ± 0.0007	1.4666 ± 0.0007	1.4639 ± 0.0007	1.4611 ± 0.0007	1.4583 ± 0.0007	1.4556 ± 0.0007	1.4528 ± 0.0007
x1 = 0.5037	1.4626 ± 0.0007	1.4599 ± 0.0007	1.4573 ± 0.0007	1.4546 ± 0.0007	1.4519 ± 0.0007	1.4492 ± 0.0007	1.4465 ± 0.0007
x1 = 0.58	1.4565 ± 0.0007	1.4539 ± 0.0007	1.4513 ± 0.0007	1.4487 ± 0.0007	1.4461 ± 0.0007	1.4435 ± 0.0007	1.4409 ± 0.0007
x1 = 0.6504	1.451 ± 0.0007	1.4484 ± 0.0007	1.4459 ± 0.0006	1.4434 ± 0.0006	1.4409 ± 0.0007	1.4383 ± 0.0007	1.4357 ± 0.0007
x1 = 0.7197	1.4456 ± 0.0006	1.4432 ± 0.0006	1.4407 ± 0.0006	1.4382 ± 0.0006	1.4358 ± 0.0006	1.4332 ± 0.0007	1.4307 ± 0.0006
x1 = 0.7822	1.4408 ± 0.0006	1.4384 ± 0.0006	1.436 ± 0.0006	1.4336 ± 0.0006	1.4312 ± 0.0006	1.4287 ± 0.0006	1.4263 ± 0.0006
x1 = 0.8561	1.4352 ± 0.0006	1.4329 ± 0.0006	1.4306 ± 0.0006	1.4283 ± 0.0006	1.426 ± 0.0006	1.4236 ± 0.0006	1.4212 ± 0.0006
x1 = 0.9287	1.4298 ± 0.0006	1.4276 ± 0.0006	1.4254 ± 0.0006	1.4232 ± 0.0006	1.421 ± 0.0006	1.4187 ± 0.0006	1.4164 ± 0.0006
x1 = 1	1.4245 ± 0.0006	1.4224 ± 0.0006	1.4203 ± 0.0006	1.4182 ± 0.0006	1.4161 ± 0.0006	1.4139 ± 0.0006	1.4117 ± 0.0006
